Data set [1] concerns MucilAir™-HF tissues. The experiment in a line: Mucin-5AC (Muc5AC) immunohistochemistry, goblet cells, MucilAir-HF model. Format: cell-based, human. The following applies: for % of Muc5AC area: average ± standard deviation. The protocol:
(§1) Tissues were handled as recommended by manufacturer’s instruction.
The presence of goblet cells was assessed through immunohistochemistry analysis for mucin-5AC protein (Muc5AC) detection. IL-13 and cytomix were used as positive controls (see item 2.5.2 for additional details). On last day of experiment (day 12), cultures (n = 3 tissues/group) were rinsed in PBS and fixed by immersion in 4% formaldehyde for 20 min. Fixed tissues were embedded into paraffin, sectioned, and processed for staining on paraffin sections. The immunostaining of the sections was performed with the Benchmark automated platform (Ventana-Roche, Hoffmann-La Roche Ltd, Basel, Switzerland) and the Autostainer Link 48 (Agilent, Santa Clara, CA. United States) with the detection kit Ultraview DAB (DAB chromogeny, Hoffmann-La Roche Ltd). Sections were pre-treated using heat mediated antigen retrieval with sodium citrate buffer, pH 6, for 20 min. The section was then incubated with recombinant anti-mucin 5AC antibody (ab3649, Abcam) for 1 h at room temperature, followed by biotinylated secondary antibody (Dako) and HRP detection (HRP conjugated ABC system, Vector Laboratories), according to manufacturer’s instruction. The section was then counterstained with hematoxylin (Sigma-Aldrich) and mounted with DPX, a synthetic non-aqueous mounting medium for microscopy. Digital images of the slides were then acquired, and quantitative image analysis performed using Image Pro Plus 6.2 (Media Cybernetics) to quantify the goblet cells on a section. The whole images of stained sections were scanned, and an average 15 images/section were analysed. The results are the ratio between the mucin 5AC stained area and the total surface area of the epithelium on the section.

Data set [2] relates to airway epithelial cell lines. The arrangement: method as in Nilsson et al., 2010. The following applies: 40 µM for 60 min, corrected and normal cell lines; ref Nilsson et al., 2010; cited from earlier work.
Data set [3] has as its system cystic fibrosis phenotype cells. Details: method as in Perez et al., 2007. To be noted: 20 µM for 3-5 days; ref Perez et al., 2007; cited from earlier work.
The test system of data set [4] is primary human nasal epithelial cells. The arrangement: method as in Uchenna Agu et al., 1999. To be noted: ref Uchenna Agu et al., 1999, cited from earlier work.
For data set [5], the system named is MucilAir™-HF tissues. The experiment in a line: Cilia beating frequency (CBF) analysis, MucilAir-HF model.
Procedure: The MucilAir™-HF system (EP11MD) and ready-to-use chemically-defined, serum-free culture medium (EP04AM) were obtained from Epithelix Sàrl (Geneva, Switzerland). Tissues were handled as recommended by manufacturer’s instruction. […] After differentiation for 42 up to 81 days at the air-liquid interface (ALI) under standard culture conditions (37°C ± 1°C in a humidified atmosphere of 5% ± 1% CO2 in air), tissues were washed 3 days before first exposure and each insert was inspected for beating cilia and mucus production. This washing step (one or twice with PBS) were performed to remove accumulated mucus and cell debris to minimize the risk of interference with the toxicity tests. Over 12-day experimental period, washing steps as well as media changes was performed every 2-3 days.
For toxicity testing performed over a 12-day experimental period, tissues were daily exposed to 3 different concentrations of each test material for 30 min or 6 h (for detailed information on each material see Table 1). […] Tissues were exposed by test materials via nebulization, liquid apical application, or liquid basal application. These differences in the exposure type were due to solubility of the test material, route of exposure (inhaled or systemic), or comparison with previous publications. […]
In data set [6] the test system is A549 human lung adenocarcinoma cell line. To be noted: 0.1-5 µM for 3h; ref Guo et al., 2012; cited from earlier work.
Data set [7] deals with EpiAirway-100 human upper respiratory tract epithelium model. To be noted: 25-125 mM for 24h; ref Balharry et al., 2008; cited from earlier work.
Data set [8] concerns HBE16 airway epithelial cells. To be noted: 20 μM for 12h; ref Li et al., 2010; cited from earlier work.
For data set [9], the system named is RLE-6TN rat lung epithelial cells. To be noted: 0.5 µM; ref Jiao et al., 2017; cited from earlier work.
Data set [10] deals with monocyte-derived macrophages (MDMs). To be noted: 20 µM; ref Zeng et al., 2021; cited from earlier work.
Data set [11] relates to MucilAir™-HF tissues. The experiment in a line: Cytokine and chemokine measurements (Luminex), MucilAir-HF model. Format: cell-based, human. To be noted: MucilAir-HF. As for the experimental part:
as §1
Basolateral medium samples of the tissue cultures were collected and stored at −80°C until analysis. The following cytokines/chemokines were quantified using customized Human Luminex® Discovery Assay kits (R&D Systems): chemokine (C-C motif) ligand (CCL) 2, CCL7, CCL26, C-X-C motif chemokine ligand (CXCL) 10, CXCL11, intercellular adhesion molecule-1 (ICAM-1), IL-1α, IL-6, IL-8, matrix metalloproteinase (MMP)-1, MMP-2, MMP-3, MMP-7, MMP-9, osteopontin, interferon (IFN)-γ, IL-1 receptor antagonist (IL-1Ra), urokinase-type plasminogen activator receptor (uPAR), tumour necrosis factor (TNF)-α, urokinase (uPA), serpin E1, tissue inhibitor of metalloproteinase 1 (TIMP-1), and TGF-β1. Samples were measured in technical triplicates according to the manufacturer’s recommendation using a Luminex Bio-Plex® 200 RUO System ([…]).

Data set [12] has as its system cultured alveolar macrophages and epithelial cells. The arrangement: method as in JOUNEAU et al., 2011. To be noted: 10 µg/mL for 48h, bacteria strain not specified; ref JOUNEAU et al., 2011; cited from earlier work.
The subject of data set [13] is primary human bronchial epithelial cells. Details: method as in Wu et al., 2010. The following applies: 1 μg/mL for 24h, bacteria strain not specified; ref Wu et al., 2010; cited from earlier work.
Data set [14] has as its system EpiAlveolar™ tissues. As to the kind of experiment: Histology and immunohistochemistry, EpiAlveolar model, Laboratory 2. To be noted: Laboratory 2, 12-day period.
Procedure: To evaluate the quality of EpiAlveolar™ tissues over the 12-day experimental period, histological and immunohistochemistry assessments for detection of pan-cytokeratin, vimentin, aquaporin 5, pro-surfactant C, CD68, caspase-3, and/or αSMA were performed by Laboratories 1 and 2.
Tissues were kept in 10% phosphate buffered formalin at 4°C for up to 48 h. Samples were then fixed in 70% ethanol and two strips of membrane were trimmed from each sample, processed, and paraffin-embedded to be cut at 5 µm thick sections and mounted to glass slides. The slides were then dewaxed in xylene, hydrated using graded industrial methylated spirit (70-100%) and stained with H&E for light microscope analysis.
For immunohistochemistry analysis, tissue sections-containing microscope slides were obtained and processed using a Discovery Ultra Staining System (Roche), according to manufacturer’s instructions, except for anti-CD68 staining that was manually performed. The slides were incubated at 60°C for 8 min and then deparaffinized at 69°C for 24 min. After that, slides were incubated with inhibitor CM or peroxidase blocking solution (for anti-CD68 staining) for 8 min at room temperature. The slides were then incubated at room temperature with the following primary monoclonal antibodies, following manufacturer’s instructions: anti-α smooth muscle actin (αSMA) at 1:500 (Leica Microsystems Ltd), anti-CD68 at 1:3000 for macrophages (11192-T24, Sino Biological), anti-pro-surfactant C protein at 1:1000 (AB3786, Sigma-Aldrich), anti-caspase-3 at 1:10000 (AB4051, Abcam), anti-aquaporin 5 (31661, Invitrogen), anti-pan-cytokeratin for epithelial cells (760-2595, Roche), and anti-vimentin for mesenchymal cells (790-2917, Roche). […]
A board-certified pathologist evaluated the changes (epithelial thinning, separation/detachment areas, necrosis, collagen, and presence of apoptotic cells, myofibroblasts, and type II pneumocytes) using a semi-quantitative scoring system (Table 2).
Setting [15] is: 30 min/day exposure, day 12, High 1 concentration (third of the tested concentrations).
Setting [16] is: 30 min/day exposure, day 12, Low concentration (first of the tested concentrations).
[17] abbreviates: 30 min/day exposure, day 12, Medium concentration (second of the tested concentrations).
Where [18] appears, read: 6 h/day exposure, day 12, single tested concentration.

Entries after “also recorded” stand apart in the source; their conditions may differ. Read-outs that look alike come from different tables or passages of the source.

As to `O=C(O)c1ccc(/C=C2\SC(=S)N(c3cccc(C(F)(F)F)c3)C2=O)cc1` [CFTRinh-172], the “Changes in Muc5AC protein expression (in words)” value in data set [1] is “not able to promote any changes; also recorded: did not induce expected increase in mucin secretion or Muc5AC protein expression”. Further, the figures for the “% of Muc5AC area” value in data set [1] (setting [15]), in data set [1] (setting [16]) and in data set [1] (setting [17]) were 6.93 ± 0.51%, 7.15 ± 1.06% and 11.01 ± 0.81%, respectively. Besides, the TEER values result in data set [2] is on record as “time-dependent increase in TEER values”. Besides, the “GM-CSF, IL-6 and/or IL-8 secretion levels” value in data set [3] is “no changes in granulocyte/macrophage colony-stimulating factor, IL-6 and/or IL-8 secretion levels”.

On to `Cc1cc(O)ccc1Cl` [Chlorocresol, 4-Chloro-3-methylphenol], for which the “% of Muc5AC area” value in [1] (setting [15]) stood at 6.95 ± 0.30%; in [1] (setting [16]) it was 14.47 ± 0.87%; in [1] (setting [17]), 8.85 ± 1.77%. The CBF result is “reversible cilio-inhibitory effects by significantly decreasing CBF” in data set [4] (0.005% w/ v for 1-20 min); “instantaneous and irreversible ciliostasis” in [4] (0.1% w/v). Besides, the “Tissue functionality (CBF, MCC, mucin secretion) change (in words)” value in data set [5] was “not able to induce changes in tissue functionality (e.g. reduced CBF)”.

As to `CN1CCC[C@H]1c1cccnc1` [Nicotine], the “% of Muc5AC area” value in [1] (setting [15]) turned out to be 5.94 ± 1.90%; in [1] (setting [16]), 0.89 ± 0.62%; in [1] (setting [17]), 3.91 ±0.79%. For the same compound, the “Cytotoxicity (LDH release)” value in [6] is reported as “did not trigger cytotoxicity”. For the same compound, in data set [7], the “TEER values (integrity of the epithelial membrane)” value is “biphasic response with a large and significant increase of TEER values at low concentrations followed by a steady decrease at higher concentrations”. The “TNF-α, IL-8, IL-6 and MUC5AC supernatant protein and mRNA levels” value in data set [8] was “did not trigger changes in TNF-α, IL-8, IL-6 and MUC5AC supernatant protein and mRNA levels”.

As to `C[S+]([O-])CCCCN=C=S` (stereo not drawn) [Sulforaphane, R,S-Sulforaphane], the “% of Muc5AC area” value in data set [1] (setting [15]) worked out at 5.04 ± 0.71%; in data set [1] (setting [16]) it was 3.74 ± 0.71%; in data set [1] (setting [17]), 9.38 ± 0.80%; in [1] (setting [18]), 2.55 ± 0.62%. In data set [9], the “Protection from cigarette smoke extract-induced oxidative damage” value is on record as “protect from cigarette smoke extract-induced oxidative damage”. Also, the Anti-inflammatory activity result in data set [10] is “anti-inflammatory activity by suppressing the expression of Toll-like receptors (TLR2 and TLR4)”.

As for “Lipopolysaccharide from Pseudomonas aeruginosa 10 [LPS]”, the “% of Muc5AC area” value in [1] (setting [15]) was determined as 4.28 ± 0.76%; in [1] (setting [16]), 2.87 ± 0.77%; in data set [1] (setting [17]), 4.30 ± 0.90%; in [1] (setting [18]) it was 1.58 ± 0.40%. In addition, the “Cytokines/chemokines modulated (in words)” value in [11] (30 min/day exposure) was “did not promote modulation of the different cytokines/chemokines”; in [11] (6 h/day exposure) it was “increased levels of proteins involved in the inflammatory response (e.g., IL-6, IL-8, and TNF-α) and degradation of extracellular matrix/fibrosis (e.g., MMP-3 and uPAR)”. Further, in data set [12], the “MMP-9 supernatant levels and mRNA transcripts” value was “significant increase in MMP-9 supernatant levels and mRNA transcripts”. In [13], the “IL-6 and IL-8 protein and mRNA transcripts levels” value was “significant increase of IL-6 and IL-8 protein and mRNA transcripts levels”. The “Histological changes compared to vehicle and control groups (in words)” value in data set [14] was “changes were not observed”.

Values taken from paper PMC11885506, “Evaluation of a non-animal toolbox informed by adverse outcome pathways for human inhalation safety” (Frontiers in Toxicology, 2025).
